Legend:
Experiment in all cases: cell viability, percent of DMSO control (CellTiter-Glo); higher = more viable cells
Settings in all cases: 72 h
[1] = tested on: DFTD cell line T3 (06/0368)
Experimental: (§1)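 Eight-point dose titration of 41 screen hits in triplicate wells on four Tasmanian devil DFTD tumour cell lines (T1-T4) and devil fibroblasts, 384-well plates. Viability was read by CellTiter-Glo (ATP) after 72 h at 37 °C. Percent of control per plate: DMSO wells = 100%, positive-control wells = 0%.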

[2] = tested on: DFTD cell line T1 (06/2887)
Experimental: as §1

[3] = tested on: DFTD cell line T4 (07/0192)
Experimental: as §1

[4] = tested on: DFTD cell line T2 (05/2569)
Experimental: as §1

CN(C)C/C=C/C(=O)Nc1cc2c(Nc3ccc(F)c(Cl)c3)ncnc2cc1O[C@H]1CCOC1 [Afatinib (BIBW2992)]
cell viability [%]
Settings	0.00617 µM	0.0185 µM	0.0556 µM	0.166667 µM	0.5 µM	1.5 µM	4.5 µM	13.5 µM
[1]	105	84.4	50.4	34	31.7	31.5	24	6.87
[2]	102	58.8	29	19	24.5	18.8	4.12	1.43
[3]	98.9	81.1	46.3	18.2	13.9	18.8	5.93	1.47
[4]	112	89.2	72.7	39.8	43.4	33.4	30.8	5.92

C=CC(=O)Nc1cc2c(Nc3ccc(F)c(Cl)c3)ncnc2cc1OCCCN1CCOCC1 [Canertinib (CI-1033)]
cell viability [%]
Settings	0.00617 µM	0.0185 µM	0.0556 µM	0.166667 µM	0.5 µM	1.5 µM	4.5 µM	13.5 µM
[1]	92.6	110	113	110	89	49.7	32.5	38.9
[2]	118	106	109	98.1	42.6	18.3	18.2	8.82
[3]	104	107	107	107	86.1	39.8	24	21
[4]	120	106	116	98	91.1	33.5	33.7	13.8

Nc1ccc(F)cc1NC(=O)c1ccc(CNC(=O)/C=C/c2cccnc2)cc1 [Chidamide]
cell viability [%]
Settings	0.0309 µM	0.0926 µM	0.277778 µM	0.833333 µM	2.5 µM	7.5 µM	22.5 µM	67.5 µM
[1]	102	78.9	56.3	39	18.9	18.2	14.3	11.1
[2]	111	97.4	38.5	28.7	9.38	-0.502	13.2	18.1
[3]	112	101	83	48.5	22.2	19.1	15.3	20.2
[4]	102	79.7	69.8	29.6	11.9	9.75	7.82	9.23

CC1(C)CC(=O)C2=C(C1)NC(=S)NC2c1cccc(O)c1 (centres undefined) [Dimethylenastron]
cell viability [%]
Settings	0.00617 µM	0.0185 µM	0.0556 µM	0.166667 µM	0.5 µM	1.5 µM	4.5 µM	13.5 µM
[1]	101	119	102	110	108	94.4	103	86.2
[2]	113	126	115	102	70.9	50.1	42.5	33.8
[3]	118	92.6	106	105	93.9	81.3	62.2	61.7
[4]	107	130	117	104	92.3	79.2	73.7	71.3

COc1cccc2c1C(=O)c1c(O)c3c(c(O)c1C2=O)C[C@@](O)(C(=O)CO)C[C@@H]3O[C@H]1C[C@H](N)[C@H](O)[C@H](C)O1 [Doxorubicin]
cell viability [%]
Settings	0.00617 µM	0.0185 µM	0.0556 µM	0.166667 µM	0.5 µM	1.5 µM	4.5 µM	13.5 µM
[1]	112	96.6	98.6	77	66.5	21.6	-3.26	4.78
[2]	109	105	104	85.8	61.2	2.77	-6.73	-3.65
[3]	104	106	96.8	84.9	53.4	2.44	-5.87	-5.47
[4]	108	98.7	96.5	88.7	64.5	13.4	-8.33	-4.69

C#Cc1cccc(Nc2ncnc3cc(OCCOC)c(OCCOC)cc23)c1.Cl [Erlotinib hydrochloride]
cell viability [%]
Settings	0.00617 µM	0.0185 µM	0.0556 µM	0.166667 µM	0.5 µM	1.5 µM	4.5 µM	13.5 µM
[1]	121	105	122	93.5	87.4	60.8	47.1	30.7
[2]	138	126	104	87.3	86.4	38.1	29.1	14.2
[3]	117	114	119	99.9	104	61.7	47.2	19.7
[4]	124	142	118	90.4	98.83	56.3	33.7	18.2

C#Cc1cccc(Nc2ncnc3cc(OCCOC)c(OCCOC)cc23)c1 [Erlotinib]
cell viability [%]
Settings	0.0123 µM	0.037 µM	0.111111111 µM	0.333333 µM	1 µM	3 µM	9 µM	27 µM
[1]	101	108	99.9	81.5	68.8	49.3	33.1	40.5
[2]	108	104	113	101	57.3	35.3	19.8	17
[3]	88.3	115	117	79.3	85.1	43.3	24.4	22
[4]	104	80.4	102	89.2	72.1	46.1	24.3	34.5
